Molecular target: T1, PDE6 (Bos taurus, UniProt P11541+P23439)
T1 construct: from tissue; host or cells: bovine retinal rod outer segments
T1 sequence (P11541 2-856 limits assumed): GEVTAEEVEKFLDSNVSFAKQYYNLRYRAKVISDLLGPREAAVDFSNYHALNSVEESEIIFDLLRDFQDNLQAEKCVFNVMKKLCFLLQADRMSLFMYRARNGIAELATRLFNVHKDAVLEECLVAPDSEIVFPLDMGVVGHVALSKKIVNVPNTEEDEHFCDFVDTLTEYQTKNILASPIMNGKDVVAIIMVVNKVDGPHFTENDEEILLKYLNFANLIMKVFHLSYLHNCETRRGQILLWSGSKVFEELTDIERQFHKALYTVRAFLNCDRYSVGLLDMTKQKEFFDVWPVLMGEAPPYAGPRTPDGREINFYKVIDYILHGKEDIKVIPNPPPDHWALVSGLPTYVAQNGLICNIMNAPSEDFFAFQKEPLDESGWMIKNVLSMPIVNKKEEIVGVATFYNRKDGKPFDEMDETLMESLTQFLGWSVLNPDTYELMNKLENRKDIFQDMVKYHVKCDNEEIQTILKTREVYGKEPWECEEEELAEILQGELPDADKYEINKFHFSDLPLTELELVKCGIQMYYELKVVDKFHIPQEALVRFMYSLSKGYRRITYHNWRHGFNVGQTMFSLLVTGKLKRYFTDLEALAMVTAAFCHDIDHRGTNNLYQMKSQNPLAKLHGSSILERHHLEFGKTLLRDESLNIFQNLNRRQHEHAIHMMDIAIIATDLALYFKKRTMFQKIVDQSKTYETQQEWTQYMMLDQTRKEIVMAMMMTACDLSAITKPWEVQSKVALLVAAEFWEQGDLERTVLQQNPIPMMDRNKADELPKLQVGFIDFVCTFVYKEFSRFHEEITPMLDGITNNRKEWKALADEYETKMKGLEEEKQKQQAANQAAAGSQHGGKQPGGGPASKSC
T1 sequence (P23439 2-850 limits assumed): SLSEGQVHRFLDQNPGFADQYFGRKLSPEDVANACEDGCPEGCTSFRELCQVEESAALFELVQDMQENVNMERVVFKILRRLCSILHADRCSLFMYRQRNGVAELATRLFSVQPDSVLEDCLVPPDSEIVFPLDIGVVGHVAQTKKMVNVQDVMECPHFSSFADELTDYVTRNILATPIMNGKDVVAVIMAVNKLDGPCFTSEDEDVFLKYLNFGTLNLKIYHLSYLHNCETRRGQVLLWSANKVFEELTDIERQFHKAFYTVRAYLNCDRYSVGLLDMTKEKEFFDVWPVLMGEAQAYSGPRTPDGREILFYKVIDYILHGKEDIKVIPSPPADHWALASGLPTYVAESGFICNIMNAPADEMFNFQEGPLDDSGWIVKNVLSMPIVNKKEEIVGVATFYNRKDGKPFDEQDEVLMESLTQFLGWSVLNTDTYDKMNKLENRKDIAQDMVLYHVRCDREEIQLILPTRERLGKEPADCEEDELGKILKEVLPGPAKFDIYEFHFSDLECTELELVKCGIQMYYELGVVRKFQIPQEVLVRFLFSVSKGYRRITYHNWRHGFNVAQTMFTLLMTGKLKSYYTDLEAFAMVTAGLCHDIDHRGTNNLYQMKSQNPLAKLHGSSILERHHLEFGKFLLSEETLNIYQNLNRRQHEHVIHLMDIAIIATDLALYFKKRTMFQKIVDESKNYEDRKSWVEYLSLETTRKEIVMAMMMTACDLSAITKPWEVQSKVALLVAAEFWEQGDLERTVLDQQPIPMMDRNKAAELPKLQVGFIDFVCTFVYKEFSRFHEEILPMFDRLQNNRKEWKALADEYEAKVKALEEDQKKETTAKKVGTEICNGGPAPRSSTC
Experiment: PDE6 enzyme inhibition assay
Type: biochemical, bovine
Conditions: 200 μM, 25° C., 1% DMSO vehicle

inhibition of PDE6 | Structure (SMILES)
greater than 50% | Cn1cc([S@@+]([O-])CCl)c(=O)c2ccc(F)cc21 (single isomer, unassigned) [(−)-enantiomer of monochloroflosequinan]
greater than 50% | Cn1cc([S@+]([O-])CCl)c(=O)c2ccc(F)cc21 (single isomer, unassigned) [(+)-enantiomer of monochloroflosequinan]

— US7041677B2, “Use of monochloroflosequinan in the treatment of sexual dysfunction” (R.T. Alamo Ventures I, LLC, priority 2002, dated 2006)
